One assay has as its target WT ZmADK3 (Zea mays, UniProt A0A1D6E5Z5). The assay is described as follows: Binding affinity by MST.
The target in the next assay is ZmADK2 (Zea mays, UniProt B4FFH8, T4S). The assay is described as follows: Binding affinity by microscale thermophoresis (MST). The note with it: MST. The procedure: (§1) The microscale thermophoresis (MST) method was used to determine the binding affinity of various ribosides for ZmADK2 and PpADK1. Proteins were fluorescently labeled with RED-tris-NTA dye (www.nanotemper-technologies.com) using a 1:1 dye/protein molar ratio. The labeled protein was adjusted to 100–300 nM in 50 mM HEPES buffer pH 7.5, 1 mM MgCl2, and 0.2% Tween. Measurements were performed in premium capillaries on a Monolith NT.115 instrument at 30 °C with 5 s/30 s/5 s laser off/on/off times, respectively, with continuous sample fluorescence recording. Thermal stability was measured by nano-differential scanning fluorimetry on a Prometheus NT.48 instrument (www.nanotemper-technologies.com) in various buffers covering a pH (7.0–9.5) and temperature range (25–95 °C), with a heating rate of 1 °C min^–1, and using NT melting control software. Protein unfolding was measured by detecting the temperature-induced change in tryptophan fluorescence intensity at emission wavelengths of 330±5 nm and 350±5 nm. The melting temperature (Tm) was deduced from the maximum of the first derivative of the fluorescence ratios F350/F330.

For the next assay, the target named is ZmADK3 D299A variant (Zea mays, UniProt A0A1D6E5Z5, D299A). Kind of assay: Binding affinity by MST. The procedure: (§2) All ZmADK3 mutants were cloned by 30 cycle PCRs using tail-to-tail oriented phosphorylated primers, with the mutation being located at the 5′ end of one of the primers. The following mutants were cloned using the primers given in Supplementary Table S1: D19A, R132A, N222A, E225A, N295A, and D299A. The products were treated with DpnI restriction enzyme, gel purified, and ligated using T4 DNA ligase (www.thermofisher.com). Clones were transformed into T7 express I^qE. coli competent cells.
as §1

A further assay concerns the target ZmADK3 N295A variant (Zea mays, UniProt A0A1D6E5Z5, N295A). Kind of assay: Binding affinity by MST. The procedure: as §2, §1
The target in a further assay is ZmADK3 D19A variant (Zea mays, UniProt A0A1D6E5Z5, D19A). Kind of assay: Binding affinity by MST. The procedure: as §2, §1
The target in the next assay is ZmADK3 N222A variant (Zea mays, UniProt A0A1D6E5Z5, N222A). The assay is described as follows: Binding affinity by MST. How it is done: as §2, §1
The target in the next assay is ZmADK3 R132A variant (Zea mays, UniProt A0A1D6E5Z5, R132A). The assay is described as follows: Binding affinity by MST. How it is done: as §2, §1
A further assay deals with ZmADK3 E225A variant (Zea mays, UniProt A0A1D6E5Z5, E225A). The assay is described as follows: Binding affinity by MST. The procedure: as §2, §1
In the next assay the test system is both moss enzymes. Kind of assay: ADK activity, coupled reaction (summary for moss enzymes). Type of assay: biochemical, Physcomitrella patens. Particulars: saturating 100 µM concentration. The procedure:
(§3) Substrate analogs were purchased from Sigma-Aldrich (www.sigmaaldrich.com). The ADK activity was measured spectrophotometrically on an Agilent 8453 UV-Vis spectrophotometer (www.agilent.com) at 30 °C using a coupled reaction with pyruvate kinase (PK) and lactate dehydrogenase (LDH) (www.sigmaaldrich.com) ([Blondin et al., 1994]). In this assay, PK converts ADP produced by ADK and phosphoenolpyruvate (PEP) to pyruvate. Subsequently, LDH then converts pyruvate to lactate using the coenzyme NADH, with the conversion monitored at 340 nm. The reaction was conducted in 50 mM Tris–HCl buffer at pH 7.5, containing 50 mM KCl, 6 mM MgCl2, 300 µM PEP, 200 µM NADH, 10 mM ATP, 2 U of PK, and 2.5 U of LDH, using various nucleoside substrates. Kinetic constants were determined using GraphPad Prism 8.0 software (www.graphpad.com). Each measurement was performed six times using repetitive purified enzymes. The activities of all five ADKs were also measured by HPLC ([Moffatt et al., 1991]). The reaction mixture comprised 50 mM Tris–HCl pH 7.5, 5 mM MgCl2, 0.5 mM DTT, 30 mM NaF, 5 mM ATP, 40 µM substrate, and 2–150 ng of purified ADK, depending on the isoform. The reaction was incubated at 30 °C for up to 1 h. […]

The subject of the next assay is all three maize ADKs. Kind of assay: ADK activity, coupled reaction (summary for maize enzymes). Type of assay: biochemical, Zea mays. Particulars: saturating 100 µM concentration. How it is done:
as §3

Another assay concerns the target ZmADK3 (Zea mays, UniProt A0A1D6E5Z5). The assay is described as follows: ADK activity, coupled reaction with PK and LDH. It is filed as biochemical. The procedure:
Substrate analogs were purchased from Sigma-Aldrich (www.sigmaaldrich.com). […] In this assay, PK converts ADP produced by ADK and phosphoenolpyruvate (PEP) to pyruvate. Subsequently, LDH then converts pyruvate to lactate using the coenzyme NADH, with the conversion monitored at 340 nm. The reaction was conducted in 50 mM Tris–HCl buffer at pH 7.5, containing 50 mM KCl, 6 mM MgCl2, 300 µM PEP, 200 µM NADH, 10 mM ATP, 2 U of PK, and 2.5 U of LDH, using various nucleoside substrates. Kinetic constants were determined using GraphPad Prism 8.0 software (www.graphpad.com). Each measurement was performed six times using repetitive purified enzymes. […] The reaction mixture comprised 50 mM Tris–HCl pH 7.5, 5 mM MgCl2, 0.5 mM DTT, 30 mM NaF, 5 mM ATP, 40 µM substrate, and 2–150 ng of purified ADK, depending on the isoform. The reaction was incubated at 30 °C for up to 1 h.

The next assay has as its target T1, PpADK1 (Physcomitrium patens, UniProt O49923).
T1 construct: made in house; host or cells: E. coli T7 Express Iq
Kind of assay: ADK activity, coupled reaction with PK and LDH. It is filed as biochemical, Physcomitrella patens. Particulars: 100 µM substrate, 10 mM ATP, pH 7.5, 30 °C. How it is done: Substrate analogs were purchased from Sigma-Aldrich (www.sigmaaldrich.com). The ADK activity was measured spectrophotometrically on an Agilent 8453 UV-Vis spectrophotometer (www.agilent.com) at 30 °C using a coupled reaction with pyruvate kinase (PK) and lactate dehydrogenase (LDH) (www.sigmaaldrich.com) ([Blondin et al., 1994]). In this assay, PK converts ADP produced by ADK and phosphoenolpyruvate (PEP) to pyruvate. Subsequently, LDH then converts pyruvate to lactate using the coenzyme NADH, with the conversion monitored at 340 nm. The reaction was conducted in 50 mM Tris–HCl buffer at pH 7.5, containing 50 mM KCl, 6 mM MgCl2, 300 µM PEP, 200 µM NADH, 10 mM ATP, 2 U of PK, and 2.5 U of LDH, using various nucleoside substrates. Kinetic constants were determined using GraphPad Prism 8.0 software (www.graphpad.com). Each measurement was performed six times using repetitive purified enzymes. The activities of all five ADKs were also measured by HPLC ([Moffatt et al., 1991]). The reaction mixture comprised 50 mM Tris–HCl pH 7.5, 5 mM MgCl2, 0.5 mM DTT, 30 mM NaF, 5 mM ATP, 40 µM substrate, and 2–150 ng of purified ADK, depending on the isoform. The reaction was incubated at 30 °C for up to 1 h. […] Similarly, the conversion of cytokinin ribosides to monophosphates was followed on a LiChrosphere 60 RP-Select B (5 µm) LiChroCART column 125-4 column equilibrated with 10 mM triethylamine at pH 5.4 plus 10% methanol, and stepwise eluted with 100% methanol.

SMILES strings stand for the structures.

Chain of ZmADK2 (B4FFH8 1-342 T4S): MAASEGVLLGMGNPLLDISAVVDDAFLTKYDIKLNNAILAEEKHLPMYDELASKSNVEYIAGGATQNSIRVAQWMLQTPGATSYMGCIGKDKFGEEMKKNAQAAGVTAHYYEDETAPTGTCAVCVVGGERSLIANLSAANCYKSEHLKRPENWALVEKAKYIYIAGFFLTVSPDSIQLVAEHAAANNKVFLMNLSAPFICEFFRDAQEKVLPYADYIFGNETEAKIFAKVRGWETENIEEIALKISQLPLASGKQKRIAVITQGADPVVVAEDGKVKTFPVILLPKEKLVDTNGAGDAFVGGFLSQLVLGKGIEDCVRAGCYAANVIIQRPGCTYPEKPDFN
Chain of ZmADK3 (A0A1D6E5Z5 entry or part of it): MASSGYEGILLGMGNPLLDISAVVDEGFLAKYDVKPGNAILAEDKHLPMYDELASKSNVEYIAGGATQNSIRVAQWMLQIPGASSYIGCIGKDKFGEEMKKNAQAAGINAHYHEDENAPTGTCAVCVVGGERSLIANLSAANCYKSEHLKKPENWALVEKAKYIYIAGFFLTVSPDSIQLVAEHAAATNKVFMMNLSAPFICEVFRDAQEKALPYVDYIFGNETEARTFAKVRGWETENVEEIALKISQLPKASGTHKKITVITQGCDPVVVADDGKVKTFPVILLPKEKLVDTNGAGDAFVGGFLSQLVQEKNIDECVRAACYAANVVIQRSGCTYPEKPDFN
Chain of ZmADK3 D299A variant (A0A1D6E5Z5 entry or part of it D299A): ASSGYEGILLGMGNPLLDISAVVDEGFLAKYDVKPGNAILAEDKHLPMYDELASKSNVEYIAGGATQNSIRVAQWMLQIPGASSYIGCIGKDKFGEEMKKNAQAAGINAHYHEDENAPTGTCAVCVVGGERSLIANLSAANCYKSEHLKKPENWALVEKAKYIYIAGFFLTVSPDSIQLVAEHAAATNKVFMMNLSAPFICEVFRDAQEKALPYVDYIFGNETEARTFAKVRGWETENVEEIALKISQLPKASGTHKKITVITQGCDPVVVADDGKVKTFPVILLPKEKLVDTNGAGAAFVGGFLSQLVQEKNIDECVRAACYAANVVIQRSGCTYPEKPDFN
Chain of WT ZmADK3 (A0A1D6E5Z5 2-344): as the sequence (A0A1D6E5Z5 entry or part of it D299A) above, with A298D counted along it
Chain of ZmADK3 E225A variant (A0A1D6E5Z5 entry or part of it E225A): as the sequence (A0A1D6E5Z5 entry or part of it D299A) above, with E224A, A298D counted along it
Chain of ZmADK3 N222A variant (A0A1D6E5Z5 entry or part of it N222A): as the sequence (A0A1D6E5Z5 entry or part of it D299A) above, with N221A, A298D counted along it
T1 sequence (O49923 whole entry): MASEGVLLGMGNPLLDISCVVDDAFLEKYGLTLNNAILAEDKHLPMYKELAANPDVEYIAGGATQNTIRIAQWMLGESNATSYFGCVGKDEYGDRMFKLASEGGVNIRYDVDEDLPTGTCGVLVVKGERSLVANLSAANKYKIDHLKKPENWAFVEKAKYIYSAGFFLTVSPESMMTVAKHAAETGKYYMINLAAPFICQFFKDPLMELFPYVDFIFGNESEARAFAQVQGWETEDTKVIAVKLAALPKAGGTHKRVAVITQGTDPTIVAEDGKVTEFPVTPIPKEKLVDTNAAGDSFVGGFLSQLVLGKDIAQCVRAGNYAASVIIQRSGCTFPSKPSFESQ
Chain of ZmADK3 R132A variant (A0A1D6E5Z5 entry or part of it R132A): as the sequence (A0A1D6E5Z5 entry or part of it D299A) above, with R131A, A298D counted along it
Chain of ZmADK3 N295A variant (A0A1D6E5Z5 entry or part of it N295A): as the sequence (A0A1D6E5Z5 entry or part of it D299A) above, with N294A, A298D counted along it
Chain of ZmADK3 D19A variant (A0A1D6E5Z5 entry or part of it D19A): as the sequence (A0A1D6E5Z5 entry or part of it D299A) above, with D18A, A298D counted along it

Regarding `Nc1ncnc2c1ncn2[C@@H]1O[C@H](CO)[C@@H](O)[C@H]1O` [Ado, adenosine], the Kd on WT ZmADK3 was 280 ± 50 nM; at ZmADK2 (KD, 50 mM HEPES pH 7.5, 1 mM MgCl2, first or only binding event), 0.0004 ± 0.00014 mM; at ZmADK2 (second KD value, KD(2), second binding event (ATP site)) it was approximately 1.5 mM; on ZmADK2 (second KD value, second binding event (ATP site)) it was 1.48 ± 0.23 mM; on ZmADK3 D299A variant, 10.3 ± 4.1 µM; at ZmADK3 N295A variant, 274 ± 10 µM. Further, the dissociation constant Kd on ZmADK3 D19A variant amounted to 989 ± 161 µM; on ZmADK3 N222A variant, 300 ± 130 nM; at ZmADK3 R132A variant, 270 ± 40 nM; at ZmADK3 E225A variant it was 320 ± 90 nM. Also, the “lower affinity for Ado than the WT” value at ZmADK3 D299A variant (D299A variant of ZmADK3) is listed as ~ 37 times. Moreover, the results for the activity in the assay on both moss enzymes and with all three maize ADKs were 4–5 nkat mg^–1 and 30–40 nkat mg^–1, respectively. Moreover, the Specific activity worked out at 31.0±0.8 nkat mg^–1 on ZmADK3 (WT ZmADK3, 100 µM Ado, 10 mM ATP, 30 °C); 30.0±1.1 nmol s^–1 mg^–1 at ZmADK3 (ZmADK3, 100 µM substrate, 10 mM ATP, pH 7.5, 30 °C); 5.09±0.26 nmol s^–1 mg^–1 at PpADK1. In addition, on ZmADK3 (WT ZmADK3, 100 µM Ado, relative to WT), the Relative rate was 100.0%. Further, the kcat at ZmADK3 (ZmADK3, 10 mM ATP, pH 7.5, 30 °C) is on record as 1.18±0.03 s^–1.

For orientation: Kd means the concentration at which binding is half-saturated. Lower therefore signals higher affinity.
